Here are results for five compounds from patent US6699463B2, “Photostable cationic organic sunscreen compounds with antioxidant properties and compositions obtained therefrom” (EM Industries, priority 2002, dated 2004).

Values after ≈ are worked out from the molar mass of the structure shown.

The nature of data set [1]: Chelating property: free coordination sites in Fe3+-antioxidant complex, UV spectrophotometric azide method. It counts as physicochemical. As to the method:
(§1) Iron-catalyzed formation of a hydroxyl radical from a superoxide anion radical and hydrogen peroxide requires the availability of at least one iron coordination site that is either empty or occupied by a readily dissociable ligand, such as water. […] Martell et al, 1957). The results are recorded in Tables 1 and 2. [table]

Data set [2] in a line: Solubility in water / aqueous-ethanolic solution. It counts as physicochemical. The settings on record: for Solubility in water: water / aqueous solution.
Data set [3] can be described thus: Chelating property: free coordination sites in Cu2+-antioxidant complex, UV spectrophotometric azide method. It counts as physicochemical. As to the method: as §1
Data set [4] is described as follows: DPPH test method (percent reducing activity, antioxidant activity). It counts as biochemical. The settings on record: for IC 50%: DPPH reducing activity; for Reductive activity at 30 μg/ml: DPPH, absorbance at 517 nm after 20 minutes. As to the method: A DPPH concentrate (2.5×) of 25 mg of 1,1-Diphenyl-2-Picyrl-Hydrazyl ACS#1898-66-4 (Sigma #D-9132, lot 99H3601) dissolved in 250 mL ethanol (USP), is prepared fresh on the measurement date. A DPPH working solution is then prepared by diluting 100 mL of this concentrate to a final volume of 250 mL (100 μM/mL). A blank 13×100 mm borosilicate glass screw top tube of ethanol (USP) is used to zero the spectrometer (Milton Roy, Spectronic 20+) at 517 nm and a control tube of DPPH working solution is measured under identical conditions, and taken as 0% activity. Aliquots of the 0.25% & 0.5% (RT & 45° C.) test solution are added to tubes followed by the rapid addition of 4 mL DPPH working solution then rapidly capped and mixed. After 20 minutes, the absorbance of each sample is read at 517 nm.
The percent reducing activity (%RA) is calculated using the following equation: [formula]
Where A(0) is the absorbance value of the DPPH working solution at 517 nm zeroed against an ethanol blank and A(20) is the absorbance at 517 nm, 20 minutes after combining the antioxidant with the DPPH working solution.
The concentration of antioxidant (mg/ml) in the final assay mixture is calculated based on the dilution of respective aliquots of each compound in the final assay volume and %RA tabulated and plotted as percent activity at each concentration in the dilution series.

Data set [5] in a line: UV absorption (λmax, εmax). It counts as physicochemical. The settings on record: for λmax: Example 3 in EtOH:water-70%:30%; for εmax: at λmax. As to the method:
The mass was degassed for one hour at 90-95 deg. C. under vacuum. The yield obtained is about 85%. […] A 50% solution in water was prepared for ease of handling.
This material was prepared by following the procedure described in Example 3, except syringaldehyde was replaced with vanillin as a starting material. The product has a λmax at 334 nm (ε max 18050 cm^−1 mol^−1). A 50% solution in water was prepared for ease of handling.

Data set [6] can be described thus: Comparative photostability of thin films under UV A and UV B irradiation. It counts as physicochemical. As to conditions: thin film, UV A (2 MED/h) and UV B (1 MED/h), 8 h, FIGS. 1 and 2. As to the method: The photostability of compounds of the present invention as well as existing commercial cationic sunscreens is tested according to the procedure described below:
Photostability: Comparative Photostability of Example 3, Incroquat® 283 and Escalol® HP610
Three products [Example 3 (1%), Incroquat 283 (1%) and HP610 (0.1%)] were tested for their photostability by dissolving separately in water or ethanol-water solution containing 0.1% Poly(vinylpyrrolidone-vinyl acetate) copolymer (PVP-VA S630 from ISP). Air drying on a glass plate for one hour gave a thin film, which were irradiated under UV A (2 MED/h) and UV B (1 MED/h) light separately over an 8 h period in a Q-UV Accelerated Weathering Tester. Photodegradation was calculated from the decrease in the maximum absorption of the respective products. The results are illustrated in FIGS. 1 and 2.

On to `CCCCCCCCCCCC[N+](C)(C)CCCNC(=O)c1ccc(N(C)C)cc1.Cc1ccc(S(=O)(=O)[O-])cc1` [Escalol® HP 610], for which the “Iron chelation / water coordination of the complex” value in data set [1] is reported as “do not have iron-or copper-chelating properties”. For the same compound, the “maximal concentration in aqueous-ethanolic solution” value in data set [2] (aqueous-ethanolic solution (30:70%)) was 0.25%. For the same compound, the Solubility in water result in data set [2] is “very poor solubility”. For the same compound, the “Copper chelation / water coordination of the complex” value in data set [3] is on record as “do not have iron-or copper-chelating properties”.

Regarding `COc1cc(/C=C(/C(C)=O)C(=O)NCCCN(C)C)cc(OC)c1O` [Example 1, N-(3-Dimethylaminopropyl)-alpha-acyl-3,5-dimethoxy-4-hydroxy Cinnamide], in data set [4], the “IC 50%” value came to 79 µg/mL (≈ 225 µM) and the “Reductive activity at 30 μg/ml” value came out at 23%.

`CCCCCCCCCCCC[N+](C)(C)CCCNC(=O)C(C#N)=Cc1cc(OC)c(O)c(OC)c1.CS(=O)(=O)[O-]` [Example 2, N-(3-Dimethyl-3-dodecylaminopropyl)-alpha-cyano-3,5-dimethoxy-4-hydroxy Cinnamide Methane Sulphonate]: in data set [4], the “IC 50%” value is 129 µg/mL and the “Reductive activity at 30 μg/ml” value is 28%.

With “Bis-N-[3(N,N-dimethylamino)propyl]-3,5-dimethoxy-4-hydroxybenzylidene Malonamide Bis Ethylsulfate [Example 3]”, in data set [4], the “IC 50%” value is 118 µg/mL and the “Reductive activity at 30 μg/ml” value is recorded as 22%. In addition, in data set [1], the “Iron chelation / water coordination of the complex” value is reported as “absence of any water coordination”. In data set [5], the λmax turned out to be 323 nm and the εmax is 10,500 cm^−1 mol^−1. Moreover, in data set [6], the “Photostability relative to commercial cationic sunscreens” value is on record as “much higher photostability”. Further, the Solubility in water entry in data set [2] is reported as “highly soluble in water”. Also, the “Copper chelation / water coordination of the complex” value in data set [3] is reported as “absence of any water coordination”.

“Bis-N-[3(N,N-dimethylamino)propyl]-3-methoxy-4-hydroxybenzylidene Malonamide Bis Ethylsulfate [Example 4]”: in data set [4], the “IC 50%” value came out at 188 µg/mL and the “Reductive activity at 30 μg/ml” value amounted to 8%. Further, in data set [5], the λmax is 334 nm and the εmax was 18050 cm⁻¹ mol⁻¹.
